Source: US11203613B2, “Peptidomimetic proteasome inhibitors” (CORNELL UNIVERSITY, priority 2017, dated 2021)
“And” between values parts separate entries of the source, which are not always exact repeats. Equal entries are not always repeated. Where two headings read alike, the source gives them in different places.

Key:
[1] = biological target: Human Constitutive (Hu C-20S) β5 Active Subunit (Homo sapiens, UniProt P28074); test: IC50 determination, human constitutive 20S proteasome β5c (suc-LLVY-AMC hydrolysis); type: biochemical
[2] = biological target: Mtb20SOG (Mycobacterium tuberculosis, UniProt P9WHT9); test: biochemical
[3] = Table 2, several values in a cell are repeat determinations, read-out: Hu c-20S IC50
[4] = Table 2, several values in a cell are repeat determinations

Sequence of Mtb20SOG (P9WHT9 58-291): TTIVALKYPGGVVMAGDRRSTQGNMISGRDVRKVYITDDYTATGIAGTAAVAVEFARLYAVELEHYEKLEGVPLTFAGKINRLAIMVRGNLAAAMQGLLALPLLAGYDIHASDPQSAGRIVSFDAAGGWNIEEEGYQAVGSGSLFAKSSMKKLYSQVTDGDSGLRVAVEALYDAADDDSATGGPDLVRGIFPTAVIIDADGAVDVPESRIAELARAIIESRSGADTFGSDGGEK

With `CC(C)CCS(=O)(=O)N[C@@H](CC(=O)N1CCCC[C@@H]1C)C(=O)N[C@@H](C)c1ncc(-c2ccc(F)cc2F)[nH]1` [CF-503157] the IC50 [1, 3] was 7.5 µM and 9.66 µM and the IC50 [2, 4] was 1.07 µM and 0.691 µM.

Compound `CCN(CC)C(=O)C[C@H](NC(=O)CCC(C)C)C(=O)N[C@@H](C)c1nc(-c2ccc(F)cc2F)c[nH]1` [CF-503197] has an IC50 [1, 3] of 7.28 µM and an IC50 [2] of 1.11 µM.

Work on `CC(NC(=O)C(CC(=O)N1CCCCC1C)NC(=O)C1CC1C(C)C)c1nc(-c2ccc(F)cc2F)c[nH]1` (stereo not shown) [CF-503475] yielded an IC50 [1, 3] of 4.77 µM and an IC50 [2] of 0.034 µM.

With `CC(C)CCC(=O)N[C@@H](CC(=O)N1CCCC[C@@H]1C)C(=O)N[C@@H](C)c1nc2ccccc2[nH]1` [CF-503149] the IC50 [1, 3] was 18.9 µM and 23.5 µM and the IC50 [2, 4] was 0.136 µM and 0.118 µM.

`CC(NC(=O)C(CC(=O)N1CCCCC1C)NC(=O)C1CC(C)(C)C1)c1nc(-c2ccc(F)cc2F)c[nH]1` (stereo not shown) [CF-503474] gave an IC50 [1, 3] of 5.65 µM and an IC50 [2] of 0.014 µM.

In the case of `CC(C)CCS(=O)(=O)NC(CC(=O)N1CCCC1c1ccccc1)C(=O)NC(C)c1nc2ccccc2[nH]1` (stereo not shown) [CF-503184], the IC50 [1, 3] is reported as 10.7 µM and the IC50 [2] is reported as 2.6 µM.

`CC[C@H]1CCCCN1C(=O)C[C@H](NC(=O)N1CCOCC1)C(=O)N[C@@H](C)c1nc2c(F)cccc2[nH]1` [CF-503453] was tested, and the IC50 [1, 3] was 4.45 µM and the IC50 [2, 4] was 4.69 µM.

`CC[C@H]1CCCCN1C(=O)C[C@H](NC(=O)CCC(C)C)C(=O)N[C@@H](C)c1nc2cc(F)c(F)cc2[nH]1` [CF-503229] showed an IC50 [1, 3] of 5 µM and an IC50 [2] of 6 µM.

For `CC(C)CCS(=O)(=O)N[C@@H](CC(=O)N1CCC[C@@H]1c1ccccc1)C(=O)NC(C)c1nc2ccccc2[nH]1` (stereo partly shown) [CF-503154], the IC50 [1, 3] was 11.8 µM and the IC50 [2, 4] was 0.116 µM and 0.202 µM.

With `CC[C@H]1CCCCN1C(=O)C[C@H](NC(=O)OCc1ccccc1)C(=O)N[C@@H](C)c1nc2c(F)cccc2[nH]1` [CF-503461] the IC50 [1, 3] was 5.8 µM and 8.2 µM and the IC50 [2, 4] was 0.068 µM and 0.075 µM.

With `Cc1cc(C(=O)N[C@@H](CC(=O)N2CCCC[C@@H]2C)C(=O)N[C@@H](C)c2ncc(-c3ccccc3F)[nH]2)no1` [CF-503103] the IC50 [1, 3] was > 15 µM and the IC50 [2] was 0.16 µM and 0.306 µM.

With `Cc1cc(C(=O)N[C@@H](CC(=O)N2CCCC[C@@H]2C)C(=O)N[C@@H](C)c2nc3ccccc3[nH]2)no1` [CF-503148] the IC50 [1, 3] was 17.4 µM and the IC50 [2, 4] was 0.906 µM.

`CC[C@H]1CCCCN1C(=O)C[C@H](NC(=O)CCc1ccccc1)C(=O)N[C@@H](C)c1nc2c(F)cccc2[nH]1` [CF-503291] was tested, and the IC50 [1, 3] was 2.64 µM and 3.39 µM and the IC50 [2] was 0.007 µM and 0.006 µM.

`Cc1cc(C(=O)N[C@@H](CC(=O)N2CCC[C@@H]2c2ccccc2)C(=O)N[C@@H](C)c2nc3ccccc3[nH]2)no1` [CF-503152] was tested, and the IC50 [1, 3] was 11 µM and 9.7 µM and the IC50 [2] was 0.184 µM and 0.127 µM.

With `C[C@H](NC(=O)[C@H](CC(=O)N1CCCC[C@@H]1C)NC(=O)CC1CC1)c1ncc(-c2ccc(F)cc2F)[nH]1` [CF-503138] the IC50 [1, 3] was 11.8 µM and 10.5 µM and the IC50 [2, 4] was 0.169 µM and 0.085 µM.

`CC(C)CCC(=O)N[C@@H](CC(=O)N1CCCC[C@@H]1C)C(=O)N[C@@H](C)c1ncc(-c2ccc(F)cc2F)[nH]1` [CF-503198] was tested, and the IC50 [1, 3] was 7.25 µM and the IC50 [2, 4] was 1.57 µM.

`CC[C@H]1CCCCN1C(=O)C[C@H](NC(=O)[C@@H]1C[C@H]1c1ccccc1)C(=O)N[C@@H](C)c1nc2c(F)cccc2[nH]1` [CF-503382] gave an IC50 [1, 3] of 12 µM and an IC50 [2, 4] of 0.166 µM.

Compound `Cc1cc(C(=O)N[C@@H](CC(=O)N2CCCCC2C)C(=O)N(C)[C@@H](C)C(=O)NCc2ccc(F)cc2F)no1` (stereo partly shown) has an IC50 [1, 3] of 19 µM and an IC50 [2, 4] of 10 µM.

With `Cc1cc(C(=O)N[C@@H](CC(=O)N2CCCC[C@@H]2C)C(=O)N[C@@H](C)c2ncc(-c3ccc(F)cc3F)[nH]2)no1` [CF-503111] the IC50 [1, 3] was 7.2 µM and 5.48 µM and the IC50 [2] was 0.041 µM and 0.034 µM.

For `C[C@H](NC(=O)[C@H](CC(=O)N1CCCC[C@@H]1C)NC(=O)[C@H]1C[C@@H]1c1ccccc1)c1nc2c(F)cccc2[nH]1` [drawing 477], the IC50 [2, 4] was 0.166 µM.

`CC1CC(C(=O)N[C@@H](CC(=O)N2CCC[C@@H]2c2ccccc2)C(=O)NC(C)c2nc3ccccc3[nH]2)C1` (stereo partly shown) [CF-503155] was tested, and the IC50 [1, 3] was 8.4 µM and the IC50 [2] was 0.125 µM.

`CC(C)C(=O)CN[C@@H](CC(=O)N1CCCC[C@@H]1C)C(=O)N[C@@H](C)c1ncc(-c2ccc(F)cc2F)[nH]1` [CF-503151] gave an IC50 [1, 3] of 9.9 µM and an IC50 [2] of 11.4 µM.

`CC(C)CCC(=O)N[C@@H](CC(=O)N1CCCC[C@@H]1C)C(=O)NCc1nc2ccccc2[nH]1` [CF-503193] gave an IC50 [1, 3] of 17.6 µM and an IC50 [2, 4] of 0.647 µM.

With `C[C@H](NC(=O)[C@H](CC(=O)N1CCC[C@@H]1C)NC(=O)CCC(C)(C)C)c1ncc(-c2ccc(F)cc2F)[nH]1` [CF-503162] the IC50 [1, 3] was 6.3 µM and 5.7 µM and the IC50 [2, 4] was 0.173 µM and 0.128 µM.

`C[C@H](NC(=O)[C@H](CC(=O)N1CCCC[C@@H]1C)NS(=O)(=O)Cc1ccccc1)c1ncc(-c2ccc(F)cc2F)[nH]1` [CF-503140] showed an IC50 [1, 3] of 6.13 µM and an IC50 [2, 4] of 0.379 µM.

With `C[C@H](NC(=O)N(CC(=O)N1CCCC[C@@H]1C)NC(=O)CCC(C)(C)C)C(=O)NCc1ccc(F)cc1F` [CF-503202] the IC50 [1, 3] was 8.5 µM and 9.12 µM and the IC50 [2, 4] was 8.32 µM and 8.8 µM.

`C[C@H](NC(=O)[C@H](CC(=O)N1CCCC[C@@H]1C)NC(=O)CCc1ccccc1)C(=O)NCc1cccc(NC(=O)OC(C)(C)C)c1` gave an IC50 [1, 3] of 50.2 µM and an IC50 [2, 4] of 24.7 µM.

`CC[C@H]1CCCCN1C(=O)C[C@H](Nc1nc2ccc(C)cc2o1)C(=O)N[C@@H](C)c1nc2c(F)cccc2[nH]1` [CF-503360] was tested, and the IC50 [1, 3] was 1.12 µM and 1.43 µM and 1.42 µM and 1.44 µM and the IC50 [2, 4] was 0.125 µM and 0.19 µM and 0.353 µM and 0.361 µM.

`Cc1cc(C(=O)N[C@@H](CC(=O)N2CCC[C@@H]2c2ccccc2)C(=O)NC(C)c2nc3ccccc3[nH]2)no1` (stereo partly shown) [CF-503127] was tested, and the IC50 [1, 3] was 7 µM and the IC50 [2] was 0.084 µM and 0.1 µM.

For `CC[C@H]1CCCCN1C(=O)C[C@H](Nc1nc(Cc2ccc(F)cc2)no1)C(=O)N[C@@H](C)c1nc2c(F)cccc2[nH]1` [CF-503419], the IC50 [1, 3] was 1.36 µM and 1.2 µM and the IC50 [2] was 0.257 µM and 0.319 µM.

`Cc1cc(C(=O)N[C@@H](CC(=O)N2CCCC[C@@H]2C)C(=O)N[C@@H](C)c2nc3c(F)cccc3[nH]2)no1` [CF-503274] was tested, and the IC50 [1, 3] was 7.09 µM and the IC50 [2] was 0.069 µM.

`Cc1cc(C(=O)N[C@@H](CC(=O)N2CCCC[C@@H]2C)C(=O)N[C@@H](C)c2ncc(Cc3ccccc3)[nH]2)no1` [CF-503133] was tested, and the IC50 [1, 3] was 5.59 µM and 7.08 µM and the IC50 [2, 4] was 0.266 µM and 0.231 µM.

`CC[C@H]1CCCCN1C(=O)C[C@H](NC(=O)CC(F)(F)F)C(=O)N[C@@H](C)c1nc2c(F)cccc2[nH]1` [CF-503319] showed an IC50 [1, 3] of 4.2 µM and an IC50 [2] of 0.32 µM.

With `CC[C@H]1CCCCN1C(=O)C[C@H](NC(=O)CCC(C)C)C(=O)N[C@@H](C)c1nc2cc(F)cc(F)c2[nH]1` [CF-503219] the IC50 [1, 3] was 4.06 µM and 4.5 µM and the IC50 [2] was 0.793 µM and 0.84 µM.

Work on `Cc1cc(C(=O)N[C@@H](CC(=O)N2CCC[C@@H]2c2ccccc2)C(=O)N[C@@H](C)c2ncc(-c3ccccc3F)[nH]2)no1` [CF-503108] yielded an IC50 [2] of 0.013 µM.

For `CC(NC(=O)C(CC(=O)N1CCCCC1C)NC(=O)C1CC2(CCC2)C1)c1nc2c(F)cccc2[nH]1` (stereo not shown) [CF-503459], the IC50 [2] was 0.013 µM and 0.02 µM.

With `C[C@H](NC(=O)[C@H](CC(=O)N1CCCC1)NC(=O)CCc1ccccc1)C(=O)NCc1cccc2cn[nH]c12` [CF-503390] the IC50 [2] was 0.121 µM and 0.088 µM.

In the case of `CC[C@H]1CCCCN1C(=O)C[C@H](NC(=O)C1CC2(CCC2)C1)C(=O)N[C@@H](C)c1nc2c(F)cccc2[nH]1` [CF-503458], the IC50 [2] is reported as 0.007 µM and 0.011 µM.

For `CC(C)CCC(=O)N[C@@H](CC(=O)N1CCC[C@@H]1c1ccccc1)C(=O)N[C@@H](C)c1nc2ccccc2[nH]1` [CF-503150], the IC50 [2] was 0.047 µM and 0.045 µM and 0.05 µM and 0.069 µM and 0.059 µM and 0.042 µM.

Work on `CC[C@H]1CCCCN1C(=O)C[C@H](NC(=O)CCC(C)(C)C)C(=O)N[C@@H](C)c1nc2c(F)cccc2[nH]1` [CEN-13, N—((S)-4-((S)-2-Ethylpiperidin-1-yl)-1-(((S)-1-(4-fluoro-1H-benzo[d]imidazol-2-yl)ethyl)amino)-1,4-dioxobutan-2-yl)-4,4-dimethylpentanamide] yielded an IC50 ([1]; Table 3, IC50 against human constitutive β5 active subunit, read-out: Hu-C20S β5) of 11.2 µM.
